Source: patent publication US12264339B2, “Compositions and methods involving engineered P27” (THE REGENTS OF THE UNIVERSITY OF CALIFORNIA, priority 2018, dated 2025)

Tests used:
[1] = system: Rb (771-928), FoxM1 (526-748), histone H1; experiment: 32P-ATP kinase assay of protein complexes on substrates (FIG. 1A); assay type: biochemical; settings: 0.5 μM complex, 20 μM substrate, 250 μM ATP, 30 minutes
Experimental: The phosphorylation activity of Cdk4 in various complexes was tested using different substrates.
The substrates used in the kinase assays were the C-terminal domain of the retinoblastoma protein (Rb (771-928); SEQ ID NO: 62), the transactivation domain of FoxM1 (FoxM1 (526-748); SEQ ID NO: 64), and full-length histone H1 (SEQ ID NO: 65).

[2] = Steady-state kinetic assays, initial rate of phosphorylation vs ATP concentration (FIGS. 1B and 1C); assay type: biochemical; settings: summary of kinetic results, FIG. 1C

| Substance | phosphorylation activity toward substrates [1] | ATP substrate capture [2] |
| --- | --- | --- |
| engineered p27 with Y74E, Y88E, and Y89E-Cdk4-CycD1 trimeric complex: trimeric complex of p27 Y74E/Y88E/Y89E, Cdk4 and CycD1; covers complexes (vii) and (viii) | greater activity toward FoxM1 and histone 1 | enhances ATP substrate capture |
| Cdk4-CycD dimeric complex: Cdk4-CycD1 dimeric complex lacking p27; covers complexes (i) and (ii) | high phosphorylation activity specifically for Rb | – |
